Source: US9708311B2, “Benzimidazole derivatives as EP4 antagonists” (BAYER PHARMA AKTIENGESELLSCHAFT, priority 2012, dated 2017)

Target: human EP4 receptor (Homo sapiens (Human), UniProt P35408)
Assay: Test for antagonism of the human EP4 receptor signal (cAMP HTRF)
Format: cell-based
Settings: cells expressing hEP4, PGE2 at EC80 (0.4 nM), cAMP TR-FRET; read-out: Antagonism hEP4 IC50
In short: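 Antagonism of PGE2-stimulated cAMP formation in hEP4-R cells with IBMX present. After lysis, cAMP measured by competitive TR-FRET (Eu cryptate anti-cAMP antibody vs cAMP-d2), 20 min at room temperature. Read-out is the 665/620 nm emission ratio; antagonism appears as restored FRET signal.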

Sequence of human EP4 receptor (P35408 whole entry): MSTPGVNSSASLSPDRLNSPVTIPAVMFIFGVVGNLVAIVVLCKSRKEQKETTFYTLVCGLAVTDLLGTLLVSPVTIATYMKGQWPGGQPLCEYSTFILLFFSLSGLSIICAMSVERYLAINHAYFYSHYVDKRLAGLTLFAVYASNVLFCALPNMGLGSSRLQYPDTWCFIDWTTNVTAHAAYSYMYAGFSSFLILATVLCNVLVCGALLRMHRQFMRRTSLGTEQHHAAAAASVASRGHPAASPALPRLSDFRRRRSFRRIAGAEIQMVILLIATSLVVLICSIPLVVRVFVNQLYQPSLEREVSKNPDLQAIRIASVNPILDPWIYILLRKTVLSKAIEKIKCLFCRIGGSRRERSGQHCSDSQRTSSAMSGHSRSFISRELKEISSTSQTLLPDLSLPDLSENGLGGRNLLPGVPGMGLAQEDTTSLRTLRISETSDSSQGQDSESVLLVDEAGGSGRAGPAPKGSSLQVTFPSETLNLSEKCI

Row | Structure (SMILES) | IC50 [nM]
1 | CCn1c2ccccc2c2cc(-c3nc4cc(C(=O)NCCOC)ccc4n3CC3CC3)ccc21 [Example 21, 1-(Cyclopropylmethyl)-2-(9-ethyl-9H-carbazol-3-yl)-N-(2-methoxyethyl)-1H-benzimidazole-5-carboxamide] | 103
2 | CCOC(=O)c1ccc2c(c1)nc(-c1ccc3c(c1)c1ccccc1n3CC)n2CCCOC [Example 99, Ethyl 2-(9-ethyl-9H-carbazol-3-yl)-1-(3-methoxypropyl)-1H-benzimidazole-5-carboxylate] | 1710
3 | CCn1c2ccccc2c2cc(-c3nc4cc(C(=O)N5CCNC(=O)C5)ccc4n3CC3CC3)ccc21 [Example 28, 4-{[1-(Cyclopropylmethyl)-2-(9-ethyl-9H-carbazol-3-yl)-1H-benzimidazol-5-yl]carbonyl}-piperazin-2-one] | 122
4 | COCCn1c(-c2ccc3c(c2)c2ccccc2n3CC2CCC2)nc2cc(C(=O)O)ccc21 [Example 124, 2-[9-(Cyclobutylmethyl)-9H-carbazol-3-yl]-1-(2-methoxyethyl)-1H-benzimidazole-5-carboxylic acid] | 94.3
5 | CCn1c2ccccc2c2cc(-c3nc4cc(C(=O)NS(=O)(=O)c5ccc(C)cn5)ccc4n3CCOC)ccc21 [Example 63, 2-(9-Ethyl-9H-carbazol-3-yl)-1-(2-methoxyethyl)-N-[(5-methylpyridin-2-yl)sulphonyl]-1H-benzimidazole-5-carboxamide] | 117
6 | CCn1c2ccccc2c2cc(-c3nc4cc(C(=O)NCCOC)ccc4n3CCOC)ccc21 [Example 31, 2-(9-Ethyl-9H-carbazol-3-yl)-N,1-bis(2-methoxyethyl)-1H-benzimidazole-5-carboxamide] | 42.8
7 | CCn1c2ccccc2c2cc(-c3nc4cc(C(=O)NS(=O)(=O)CC)ccc4n3CCOC)ccc21 [Example 18, 2-(9-Ethyl-9H-carbazol-3-yl)-N-(ethylsulphonyl)-1-(2-methoxyethyl)-1H-benzimidazole-5-carboxamide] | 22.8
8 | CCn1c2ccc(-c3nc4c(C)c(C(=O)O)ccc4n3CCOC)cc2c2cccc(Cl)c21 [Example 143, 2-(8-Chloro-9-ethyl-9H-carbazol-3-yl)-1-(2-methoxyethyl)-4-methyl-1H-benzimidazole-5-carboxylic acid] | 5.19
9 | CCn1c2ccccc2c2cc(-c3nc4cc(C(=O)O)ccc4n3C[C@@H]3COCCO3)ccc21 [Example 139, 1-[(2R)-1,4-Dioxan-2-ylmethyl]-2-(9-ethyl-9H-carbazol-3-yl)-1H-benzimidazole-5-carboxylic acid] | 252
10 | CCn1c2ccccc2c2cc(-c3nc4cc(C(=O)O)ccc4n3CC3CC3)nc(C)c21 [Example 131, 1-(Cyclopropylmethyl)-2-(9-ethyl-1-methyl-9H-beta-carbolin-3-yl)-1H-benzimidazole-5-carboxylic acid] | 480
11 | CCn1c2ccc(-c3nc4cc(C(=O)O)ccc4n3CC3CC3)cc2c2cccnc21 [Example 116, 1-(Cyclopropylmethyl)-2-(9-ethyl-9H-pyrido[2,3-b]indol-6-yl)-1H-benzimidazole-5-carboxylic acid] | 22.2
12 | CCn1c2ccccc2c2cc(-c3nc4cc(C(=O)N5CCC5)ccc4n3CCOC)ccc21 [Example 30, Azetidin-1-yl[2-(9-ethyl-9H-carbazol-3-yl)-1-(2-methoxyethyl)-1H-benzimidazol-5-yl]methanone] | 30.1
13 | C#CCn1c2ccccc2c2cc(-c3nc4cc(C(=O)O)ccc4n3CCOC)ccc21 [Example 119, 1-(2-Methoxyethyl)-2-[9-(prop-2-yn-1-yl)-9H-carbazol-3-yl]-1H-benzimidazole-5-carboxylic acid] | 43.7
14 | CCn1c2ccccc2c2cc(-c3nc4cc(C(=O)NS(=O)(=O)Cc5ccc(F)cc5)ccc4n3CCOC)ccc21 [Example 58, 2-(9-Ethyl-9H-carbazol-3-yl)-N-[(4-fluorobenzyl)sulphonyl]-1-(2-methoxyethyl)-1H-benzimidazole-5-carboxamide] | 174
15 | CCn1c2ccc(OC)cc2c2cc(-c3nc4cc(C(=O)O)ccc4n3CC3CC3)ccc21 [Example 43, 1-(Cyclopropylmethyl)-2-(9-ethyl-6-methoxy-9H-carbazol-3-yl)-1H-benzimidazole-5-carboxylic acid] | 54.6
16 | CCn1c2ccccc2c2cc(-c3nc4cc(C(=O)NS(=O)(=O)CC(C)(C)C)ccc4n3CCOC)ccc21 [Example 66, N-[(2,2-Dimethylpropyl)sulphonyl]-2-(9-ethyl-9H-carbazol-3-yl)-1-(2-methoxyethyl)-1H-benzimidazole-5-carboxamide] | 16.1
17 | CCn1c2ccccc2c2cc(-c3nc4c(F)c(C(=O)O)ccc4n3CC3CC3)ccc21 [Example 115, 1-(Cyclopropylmethyl)-2-(9-ethyl-9H-carbazol-3-yl)-4-fluoro-1H-benzimidazole-5-carboxylic acid] | 11.6
18 | CCn1c2ccccc2c2cc(-c3nc4cc(C(=O)NS(=O)(=O)Cc5ccc(Cl)cc5)ccc4n3CCOC)ccc21 [Example 64, N-[(4-Chlorobenzyl)sulphonyl]-2-(9-ethyl-9H-carbazol-3-yl)-1-(2-methoxyethyl)-1H-benzimidazole-5-carboxamide] | 138

Row | Structure (SMILES) | IC50 [nM]
19 | CCn1c2ccccc2c2cc(-c3nc4cc(S(N)(=O)=O)ccc4n3CCOC)ccc21 [Example 127, 2-(9-Ethyl-9H-carbazol-3-yl)-1-(2-methoxyethyl)-1H-benzimidazole-5-sulphonamide] | 305
20 | CCn1c2ccccc2c2cc(-c3nc4cc(-n5ccnn5)ccc4n3C)ccc21 [Example 128, 9-Ethyl-3-[1-methyl-5-(1H-1,2,3-triazol-1-yl)-1H-benzimidazole-2-yl]-9H-carbazole] | 111
21 | C=CCn1c(-c2ccc3c(c2)c2ccccc2n3CC)nc2cc(C(=O)N(C)C)ccc21 [Example 85, 1-Allyl-2-(9-ethyl-9H-carbazol-3-yl)-N,N-dimethyl-1H-benzimidazole-5-carboxamide] | 1860
22 | CCn1c2ccccc2c2cc(-c3nc4cc(C#N)ccc4n3CCOC)ccc21 [Example 44, 2-(9-Ethyl-9H-carbazol-3-yl)-1-(2-methoxyethyl)-1H-benzimidazole-5-carbonitrile] | 421
23 | C=CCn1c(-c2ccc3c(c2)c2ccccc2n3CC)nc2cc(C(=O)OC)ccc21 [Example 1, Methyl 1-allyl-2-(9-ethyl-9H-carbazol-3-yl)-1H-benzimidazole-5-carboxylate] | 3100
24 | CCn1c2ccccc2c2cc(-c3nc4c(C)c(C(=O)O)ccc4n3CC3CC3)cnc21 [Example 107, 1-(Cyclopropylmethyl)-2-(9-ethyl-9H-pyrido[2,3-b]indol-3-yl)-4-methyl-1H-benzimidazole-5-carboxylic acid] | 433
25 | CCn1c2ccccc2c2cc(-c3nc4cc(-c5nnn[nH]5)ccc4n3CCOC)ccc21 [Example 45, 9-Ethyl-3-[1-(2-methoxyethyl)-5-(1H-tetrazol-5-yl)-1H-benzimidazol-2-yl]-9H-carbazole] | 13.4
26 | CCn1c2ccccc2c2cc(-c3nc4cc(C(=O)N5CCCC5)ccc4n3CCOC)ccc21 [Example 76, [2-(9-Ethyl-9H-carbazol-3-yl)-1-(2-methoxyethyl)-1H-benzimidazol-5-yl](pyrrolidin-1-yl)-methanone] | 41.3
27 | CCn1c2ccccc2c2cc(-c3nc4c(C)c(C(=O)O)ccc4n3CCOC)ccc21 [Example 105, 2-(9-Ethyl-9H-carbazol-3-yl)-1-(2-methoxyethyl)-4-methyl-1H-benzimidazole-5-carboxylic acid] | 64.3
28 | CCn1c2ccccc2c2cc(-c3nc4cc(C(=O)NCC(F)(F)F)ccc4n3CCOC)ccc21 [Example 77, 2-(9-Ethyl-9H-carbazol-3-yl)-1-(2-methoxyethyl)-N-(2,2,2-trifluoroethyl)-1H-benzimidazole-5-carboxamide] | 49.2
29 | CCn1c2ccccc2c2cc(-c3nc4c(Cl)c(C(=O)OC)ccc4n3CC3CC3)ccc21 [Example 7, Methyl 4-chloro-1-(cyclopropylmethyl)-2-(9-ethyl-9H-carbazol-3-yl)-1H-benzimidazole-5-carboxylate] | 1430
30 | CCn1c2ccccc2c2cc(-c3nc4cc(C(=O)NS(=O)(=O)Cc5ccccc5)ccc4n3CCOC)ccc21 [Example 55, N-(Benzylsulphonyl)-2-(9-ethyl-9H-carbazol-3-yl)-1-(2-methoxyethyl)-1H-benzimidazole-5-carboxamide] | 117
31 | CCn1c2ccncc2c2cc(-c3nc4cc(C(=O)O)ccc4n3CC3CC3)ccc21 [Example 109, 1-(Cyclopropylmethyl)-2-(5-ethyl-5H-pyrido[4,3-b]indol-8-yl)-1H-benzimidazole-5-carboxylic acid] | 178
32 | CCn1c2ccccc2c2cc(-c3nc4cc(C(=O)O)ccc4n3CCCOC)ccc21 [Example 100, 2-(9-Ethyl-9H-carbazol-3-yl)-1-(3-methoxypropyl)-1H-benzimidazole-5-carboxylic acid] | 158
33 | C=CCn1c(-c2ccc3c(c2)c2ccccc2n3CC)nc2cc(C(=O)O)ccc21 [Example 2, 1-Allyl-2-(9-ethyl-9H-carbazol-3-yl)-1H-benzimidazole-5-carboxylic acid] | 312
34 | CCn1c2ccc(-c3nc4cc(C(=O)O)ccc4n3CCOC)cc2c2cccc(F)c21 [Example 12, 2-(9-Ethyl-8-fluoro-9H-carbazol-3-yl)-1-(2-methoxyethyl)-1H-benzimidazole-5-carboxylic acid] | 10.2
35 | CCn1c2ccccc2c2cc(-c3nc4cc(C(=O)NC)ccc4n3CCN(C)C)ccc21 [Example 73, 1-[2-(Dimethylamino)ethyl]-2-(9-ethyl-9H-carbazol-3-yl)-N-methyl-1H-benzimidazole-5-carboxamide] | 382
36 | CCn1c2ccccc2c2cc(-c3nc4cc(C(=O)O)ccc4n3C(C)C)ccc21 [Example 93, 2-(9-Ethyl-9H-carbazol-3-yl)-1-isopropyl-1H-benzimidazole-5-carboxylic acid] | 733
